Results from US10105357B2, “Indication of antibiotic drugs for preparation of cancer inhibition pharmaceutical composition” (LAUNX BIOMEDICAL CO., LTD., priority 2014, dated 2018).
Where two headings read alike, the source gives them in different places.

What was measured:
Format in all cases: cell-based, human
[1] = system: A375 (Amelanotic Melanoma); assay: Cell viability analysis, skin cancer A375; conditions: Homo sapiens, A-375, 72 h
[2] = system: HL-60 (Acute Promyelocytic Leukemia); assay: Cell viability analysis, leukemia HL-60; conditions: Homo sapiens, HL-60, 72 h
[3] = system: MCF7 (Mammary Gland, Adenocarcinoma); assay: Cell viability analysis, breast cancer MCF7; conditions: Homo sapiens, MCF7, 72 h
[4] = system: HepG2 (Hepatocellular Carcinoma); assay: Cell viability analysis, hepatic cancer HepG2; conditions: Homo sapiens, HepG2, 72 h
[5] = system: A549 (Lung Adenocarcinoma); assay: Cell viability analysis, lung cancer A549; conditions: Homo sapiens, A549, 72 h
cancer cell lines = assay: Cell viability analysis (WST-1) on cancer cell lines; conditions: drug 10 μM, 72 hours, WST-1; Table 3
[6] = system: LoVo (Colorectal Adenocarcinoma); assay: Cell viability analysis, colon cancer LoVo; conditions: Homo sapiens, LoVo, 72 h, read-out: cell viability (survival rate), LoVo, drug 10 μM, 72 hours, WST-1, OD450 nm
[7] = system: TSGH-8301 (Urinary Bladder Carcinoma); assay: Cell viability analysis, bladder cancer TSGH-8301; conditions: Homo sapiens, 72 h
[8] = system: HI650 (Lung Adenocarcinoma); assay: Cell viability analysis, lung cancer HI650; conditions: Homo sapiens, NCI-H1650, 72 h
[9] = system: PC3 (p53−) (Prostate Adenocarcinoma); assay: Cell viability analysis, prostate cancer PC3; conditions: Homo sapiens, 72 h
[10] = system: AGS (Gastric Adenocarcinoma); assay: Cell viability analysis, gastric cancer AGS; conditions: Homo sapiens, 72 h
[11] = system: MKN-45 (Gastric Adenocarcinoma); assay: Cell viability analysis, gastric cancer MKN-45; conditions: Homo sapiens, MKN-45, 72 h
[12] = system: HeLa (Cervix Adenocarcinoma); assay: Cell viability analysis, cervical cancer HeLa; conditions: Homo sapiens, HeLa, 72 h
[13] = read-out: cell viability (survival rate), A375, drug 10 μM, 72 hours, WST-1, OD450 nm
[14] = read-out: cell viability (survival rate), HL-60, drug 10 μM, 72 hours, WST-1, OD450 nm
[15] = read-out: cell viability (survival rate), MCF7, drug 10 μM, 72 hours, WST-1, OD450 nm
[16] = read-out: cell viability (survival rate), HepG2, drug 10 μM, 72 hours, WST-1, OD450 nm
[17] = read-out: cell viability (survival rate), A549, drug 10 μM, 72 hours, WST-1, OD450 nm
[18] = read-out: cell viability (survival rate), TSGH, drug 10 μM, 72 hours, WST-1, OD450 nm
[19] = read-out: cell viability (survival rate), H1650, drug 10 μM, 72 hours, WST-1, OD450 nm
[20] = read-out: cell viability (survival rate), PC3, drug 10 μM, 72 hours, WST-1, OD450 nm
[21] = read-out: cell viability (survival rate), AGS, drug 10 μM, 72 hours, WST-1, OD450 nm
[22] = read-out: cell viability (survival rate), MKN-45, drug 10 μM, 72 hours, WST-1, OD450 nm
[23] = read-out: cell viability (survival rate), HeLa, drug 10 μM, 72 hours, WST-1, OD450 nm
[24] = drug 10 μM, 72 hours, WST-1, OD450 nm, read-out: cell viability (survival rate), A375
[25] = drug 10 μM, 72 hours, WST-1, OD450 nm, read-out: cell viability (survival rate), HL-60
[26] = drug 10 μM, 72 hours, WST-1, OD450 nm, read-out: cell viability (survival rate), MCF7
[27] = drug 10 μM, 72 hours, WST-1, OD450 nm, read-out: cell viability (survival rate), HepG2
[28] = drug 10 μM, 72 hours, WST-1, OD450 nm, read-out: cell viability (survival rate), A549
[29] = drug 10 μM, 72 hours, WST-1, OD450 nm, read-out: cell viability (survival rate), TSGH
[30] = drug 10 μM, 72 hours, WST-1, OD450 nm, read-out: cell viability (survival rate), H1650
[31] = drug 10 μM, 72 hours, WST-1, OD450 nm, read-out: cell viability (survival rate), PC3
[32] = drug 10 μM, 72 hours, WST-1, OD450 nm, read-out: cell viability (survival rate), AGS
[33] = drug 10 μM, 72 hours, WST-1, OD450 nm, read-out: cell viability (survival rate), MKN-45
[34] = drug 10 μM, 72 hours, WST-1, OD450 nm, read-out: cell viability (survival rate), HeLa

Compound	viability at 10 µM [1, 13] [%]	viability at 10 µM [2, 14] [%]	viability at 10 µM [3, 15] [%]	viability at 10 µM [4, 16] [%]	viability at 10 µM [5, 17] [%]	inhibition effect on different cancer cell lines (cancer cell lines)	viability at 10 µM [6] [%]	viability at 10 µM [7, 18] [%]	viability at 10 µM [8, 19] [%]	viability at 10 µM [9, 20] [%]	viability at 10 µM [10, 21] [%]	viability at 10 µM [11, 22] [%]	viability at 10 µM [12, 23] [%]	other results
COc1ccc(O)cc1 [Mequinol]	63.8	112	74.4	95.6	118	significant inhibition effect	85.2	97	67.5	68	57.2	103	87.1	
O=C(O)CCNC(=O)c1ccccc1 [Betamipron]	85.8	96.2	118	90.9	72.3	significant inhibition effect	93.5	85.4	72.8	92.6	75.2	88.2	75.9	
CCCCCCCCCCCC[N+](C)(C)CCOc1ccccc1 [Domiphen Bromide]						significant inhibition effect	48.7							viability at 10 µM [1, 24]: 36.3%; viability at 10 µM [2, 25]: 30%; viability at 10 µM [3, 26]: 31.3%; viability at 10 µM [4, 27]: 62.1%; viability at 10 µM [5, 28]: 28.7%; viability at 10 µM [7, 29]: 37.3%; viability at 10 µM [8, 30]: 46.5%; viability at 10 µM [9, 31]: 38.9%; viability at 10 µM [10, 32]: 32.5%; viability at 10 µM [11, 33]: 44.4%; viability at 10 µM [12, 34]: 38%
Clc1ccc(CCC(Cn2ccnc2)Sc2c(Cl)cccc2Cl)cc1 (stereo not shown) [Butoconazole nitrate]	102	41.3	72.9	114	89.6	significant inhibition effect	112	86	78.2	57.1	78.7	48.7	131	
CCn1cc(C(=O)O)c(=O)c2cc(F)c(N3CCNCC3)nc21 [Enoxacin (Penetrex), Enoxacin]						significant inhibition effect	83.8							viability at 10 µM [1, 24]: 66.9%; viability at 10 µM [2, 25]: 108%; viability at 10 µM [3, 26]: 44.5%; viability at 10 µM [4, 27]: 88.1%; viability at 10 µM [5, 28]: 45.8%; viability at 10 µM [7, 29]: 90.4%; viability at 10 µM [8, 30]: 92.3%; viability at 10 µM [9, 31]: 112%; viability at 10 µM [10, 32]: 111%; viability at 10 µM [11, 33]: 54.3%; viability at 10 µM [12, 34]: 68.5%
Cc1ncc([N+](=O)[O-])n1CC(C)O (stereo not shown) [Secnidazole (Flagentyl), Secnidazole]	117	97.2	81	99	69.2	significant inhibition effect	85.4	52.1	46.8	81.6	78	77.2	124	
C[C@@H](O)[C@H]1C(=O)N2C(C(=O)[O-])=C(SC3Cn4cnc[n+]4C3)[C@H](C)[C@H]12 (stereo partly shown) [Biapenem]	60.4	95.5	136	66.4	90.1	significant inhibition effect	88.7	117	42.2	80.3	75.1	81.5	54	
